Where “and” joins values, the source holds several entries; their conditions need not be identical. Equal entries are not always repeated.
How the values were obtained:
NGAL [1] = test: Western blot of NGAL protein in SEB-1 sebocytes after retinoid treatment; format: cell-based, human; conditions: 72 hours, 0.1 nM to 1 μM, maximum with micromolar concentrations
Text: For Western blotting, mouse monoclonal antibody to lipocalin 2 (NGAL) was obtained from Abeam, Inc., (Cambridge, Mass.). The 24p3R(NGAL receptor) affinity purified antibody, positive (HEK 293 cell lysate) and negative (T47D cell lysate) controls were kindly provided by Dr. Michael Green (University of Massachusetts Medical School). GAPDH (#2118), Cleaved caspase 3 (#9664), β-actin (#4967) and anti-rabbit horseradish peroxidase (HRP) linked secondary antibodies (#7074) were purchased from Cell Signaling Technology (Beverly, Mass.). Secondary Anti-mouse HRP antibody was purchased from Santa Cruz Biotechnology Inc. (Santa Cruz, Calif.).
SEB-1 sebocytes (passages 22-28) were in standard culture medium until 50-75% confluent. Treatments of 13-cis RA (0.1 nM, 1 nM, 10 nM, 0.1 μM, or 1 μM) or ethanol vehicle (0.01% or less) were applied for 48 or 72 hours. In parallel studies, identical concentrations of all-trans retinoic acid (ATRA) were applied for 72 hours. In all experiments, each plate was considered an independent sample and total protein was collected. Blots were incubated with appropriate primary and secondary antibodies followed by densitometry. […] Data was analyzed using a paired t-test and results were considered significant if p<0.05.
Protein expression was verified by western blot at 72 hours of retinoid treatment. […] Blots were analyzed by densitometry and normalized to β-actin. […]

NGAL [2] = test: NGAL immunohistochemistry on patient skin sections; format: in vivo, human; conditions: individual patients 1-6 and average, after one week isotretinoin therapy
Protocol: All sections were counterstained with hematoxylin. […] NC-negative control, consists of a normal human skin incubated with normal mouse IgG1 antibody.

sebaceous glands [3] = test: TUNEL-peroxidase assay on patient skin biopsies; format: in vivo, human
sebaceous glands [4] = test: Histology: sebaceous gland area in patient skin biopsies (H&E, image analysis); format: in vivo, human; conditions: one week samples, mean±SEM; baseline 0.23±0.09; not significant (p=0.16)
LCN2 mRNA = test: QPCR of LCN2 mRNA in SEB-1 sebocytes after retinoid treatment; format: cell-based, human; conditions: 48 hours
Protocol: Applied Biosystems' Assays-on-Demand Taqman Universal PCR Master Mix, primer/probe sets, and ABI's 7900HT Fast Real-Time PCR System with 384-well plate block module were used according to manufacturer's instructions (Applied Biosystems, Foster City, Calif.). Integrity of isolated RNA was verified by agarose gel electrophoresis. cDNA was generated from 1 μg of total RNA, primed with oligo-dT, using the Superscript First-Strand Synthesis System for RT-PCR (Invitrogen, Carlsbad, Calif.). Diluted cDNA from the one week samples were run for the reference gene TATA binding protein (TBP) and genes of interest: lipocalin 2, (LCN2) RARRES1, S100A7, SERPINA3 and PLA2G7. For gene array verification, 8 independent samples of SEB-1 sebocytes treated with 0.1 μM 13-cis RA or vehicle alone for 72 hours were analyzed. Genes of interest included: LCN2, RARRES1, insulin-like growth factor binding protein 3 (IGFBP-3), GATA3, ZBTB16 and potential LCN2 cell surface receptor (SLC22A17). Expression of TBP, GAPDH and LCN2 was analyzed in 6 independent SEB-1 samples for the siRNA knockdown experiments. SEB-1 sebocytes treated with increasing concentrations of ATRA (n=5) were analyzed for the reference gene, TBP, and LCN2. […] Data was analyzed using the Relative Expression Software Tool (REST-XL version 1) software program (64) with efficiency correction and a p-value <0.05 was considered significant. […]

NGAL [5] = test: Immunoblot for NGAL in SEB-1 sebocytes after poly (I:C); format: cell-based, human; conditions: SEB-1, 20 μg/mL, 48 hrs
P. acnes bacteria = test: P. acnes percent survival after rhNGAL treatment; conditions: 1-25 μg/mL, 4 hours, percent survival relative to vehicle
SEB-1 sebocytes = test: TUNEL assay in SEB-1 sebocytes; format: cell-based, human; conditions: 24 hours, 1 ng/mL

Molecule: CC1=C(/C=C/C(C)=C/C=C/C(C)=C/C(=O)O)C(C)(C)CCC1 [ATRA, all-trans retinoic acid]
- NGAL protein expression increase compared to control (maximum) (NGAL [1]): 7 fold

Molecule: CC1=C(/C=C/C(C)=C/C=C/C(C)=C\C(=O)O)C(C)(C)CCC1 [isotretinoin, 13-cis retinoic acid]
- 1-week (% of sebaceous gland positive for NGAL) (NGAL [2]): 27.1% and 1.1% and 12.1% and 1.0% and 36.7% and 11.3%
- increase in the percentage of TUNEL positive cells vs baseline (sebaceous glands [3]; one week of therapy compared to baseline): 4 fold
- percentage of TUNEL positive cells within the sebaceous gland (sebaceous glands [3]; one week of therapy, mean±SD, n=6 patients, baseline 13.9±6%, p=0.005): 45.9±11.9%
- mean area of sebaceous glands (sebaceous glands [4]): 0.12±0.02 mm^2
- concentrations that significantly increased LCN2 mRNA levels (LCN2 mRNA): ≥ 1 nM
- increase of LCN2 mRNA levels compared to control (LCN2 mRNA; micromolar concentrations): approximately 6 fold

Molecule: Polyinosinic:polycytidylic acid [Poly (I:C)]
- NGAL expression in total cell lysate (NGAL [5]): increases

B1: rhNGAL: purified recombinant human NGAL protein (amino acids 21-198, R&D Systems); in Example 14 rhNGAL produced in E. coli (protein)
chain: QDSTSDLIPAPPLSKVPLQQNFQDNQFQGKWYVVGLAGNAILREDKDPQKMYATIYELKEDKSYNVTSVLFRKKKCDYWIRTFVPGCQPGEFTLGNIKSYPGLTSYLVRVVSTNYNQHAMVFFKKVSQNREYFKITLYGRTKELTSELKENFIRFSKSLGLPENHIVFPVPIDQCIDG
modifications: human
- effect on P. acnes bacteria (FIG. 11) (P. acnes bacteria): inhibitory effects
- percentage of TUNEL positive cells (maximum) (SEB-1 sebocytes): approximately 35%
